In paper PMC9688225, “α-Lipoic Acid Derivatives as Allosteric Modulators for Targeting AMPA-Type Glutamate Receptors’ Gating Modules” (Cells, 2022):
pIC50: −log10 of the molar value. Like-named read-outs stand apart in the source and are kept apart here.

Columns and labels:
Format in all cases: cell-based
[1] = biological target: T1, GluA1 AMPA receptor subunit (flip isoform) (Homo sapiens, UniProt P42261); assay: Whole-cell patch-clamp electrophysiology, homomeric GluA1 expressed in HEK293 cells; settings: for Amplitude (glutamate + compound): 10 mM glutamate + 12 µM compound, −60 mV, pH 7.4, 22 °C, mean ± SEM; for Amplitude (glutamate + compound) / A/AI (current with glutamate alone / current with glutamate + compound): n = 10; for A/AI (current with glutamate alone / current with glutamate + compound): 10 mM glutamate, 12 µM compound; for IC50 / pIC50: Hill fit; for IC50: read-out: Log IC50 (converted); for t deact (weighted deactivation time constant) / t des (weighted desensitization time constant): glutamate + 12 µM compound; for t deact (weighted deactivation time constant): glutamate alone 2.2±0.1 ms; for t des (weighted desensitization time constant): glutamate alone 2.3±0.1 ms; for pIC50: whole-cell normalized peak amplitude, unit printed in the text, not in Table S6, read-out: IC50
T1 construct: expressed in transfected cells; host or cells: HEK293
T1 sequence (P42261 19-906 isoform P42261-2 limits assumed): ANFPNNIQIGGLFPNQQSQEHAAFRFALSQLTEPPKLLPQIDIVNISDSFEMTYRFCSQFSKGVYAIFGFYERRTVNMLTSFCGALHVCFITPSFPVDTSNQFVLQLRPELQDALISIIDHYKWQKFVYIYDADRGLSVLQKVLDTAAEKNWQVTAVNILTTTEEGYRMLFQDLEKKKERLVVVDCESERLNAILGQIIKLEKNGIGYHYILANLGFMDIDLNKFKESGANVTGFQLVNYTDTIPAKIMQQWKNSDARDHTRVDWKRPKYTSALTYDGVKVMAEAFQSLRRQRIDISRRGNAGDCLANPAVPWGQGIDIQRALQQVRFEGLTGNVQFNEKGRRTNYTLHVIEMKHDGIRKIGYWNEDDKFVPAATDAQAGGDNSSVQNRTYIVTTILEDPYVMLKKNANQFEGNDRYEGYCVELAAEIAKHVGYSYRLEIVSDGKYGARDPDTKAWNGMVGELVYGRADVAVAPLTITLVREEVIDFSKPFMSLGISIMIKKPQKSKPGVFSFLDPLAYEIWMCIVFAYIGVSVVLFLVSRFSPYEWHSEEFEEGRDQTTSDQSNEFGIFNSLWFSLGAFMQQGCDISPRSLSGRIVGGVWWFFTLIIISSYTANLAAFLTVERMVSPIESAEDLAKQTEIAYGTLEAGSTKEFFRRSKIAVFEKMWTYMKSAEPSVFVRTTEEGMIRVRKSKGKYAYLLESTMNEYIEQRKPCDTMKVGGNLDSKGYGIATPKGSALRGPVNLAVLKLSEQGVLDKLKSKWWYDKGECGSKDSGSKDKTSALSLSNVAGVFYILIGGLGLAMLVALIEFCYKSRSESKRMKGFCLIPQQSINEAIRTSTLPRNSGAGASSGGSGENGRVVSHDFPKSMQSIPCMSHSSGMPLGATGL
Description: (§1) Up to 20 μg of high-copy plasmid DNA was prepared using the QIAGEN Plasmid Mini Kit, the tubes were then centrifuged to extract the supernatant containing the plasmid DNA, ethanol was used to wash the DNA pellet, then centrifuged again and the supernatant was carefully removed as to not disturb the pellet, finally, the pellet was air-dried, and the DNA was re-dissolved in a suitable volume of buffer, (our prior study detailed the whole DNA preparation data). The flip isoform was used in all AMPAR subunits used in this investigation. AMPAR subunits were subcloned in pRK and expressed in the human embryonic kidney cells (HEK293) (The HEK293 cell line was obtained from Sigma, Schnelldorf, Germany). IPA (Integrated Patch Amplifier) recorded HEK293 cells 36–48 h after transfection using the patch-clamp method (Sutter Instruments, Novato, CA, USA). A high-speed piezo solution switcher was installed on a double-barreled glass (theta tube) to provide solutions fast, isolate receptor responses from any network influences, and preserve, as much as possible, the postsynaptic protein machinery. Thus, inhibition was measured by comparing the current recorded when glutamate alone was administered to the current observed when glutamate plus the compound of interest was delivered to the same cell. Before administering the α-LA compounds, experiments were conducted to determine the appropriate concentration to be delivered to the cells without harming them. Dichloromethane (12 µM) effect on GluA1 and GluA2 subunits was tested to ensure that it had no effect on AMPA receptor currents (Figure S8). The effect of α-LA compounds on AMPA subunits plateaued at a concentration of 12 µM because LA inhibits AMPA receptors at low concentrations and continues to inhibit them when LA concentrations are increased by 2 µM each interval, as shown in Figure S1. The concentration increased by 2 µM each time to ensure that no cells were harmed. The cells were washed for 20 s between α-LA derivatives (12 µM), and 10 mM glutamate was supplied alone after each α-LA compound to ensure cell health. Data analysis was carried out using Igor Pro7 (Wave Metrics, inc). For both desensitization (τw des) and deactivation rates (τw deact), an exponential fit to the current decline was obtained at 95% of peak to baseline current. The weighted tau (τw) was calculated as τw = (τf × af) + (τs × as), where af and as are the amplitudes of the fast (τf) and slow (τs) exponential components, respectively. Our study detailed the experimental data set.
(§2) Data are presented as mean ± standard error of the mean (SEM). The number of samples (n = 10) refers to the total number of tested HEK293 cells. Statistical differences between the groups and the wild type were examined by One Way Analysis of Variance (ANOVA), with values of p < 0.05 being considered to indicate statistical significance: (*) p < 0.05, (**) p < 0.01, (***) p < 0.001, ns, not significant. Concentration-response relationships were fitted as composite curves using GraphPad Prism version 6.01 (GraphPad Software, San Diego, CA, USA) to the Hill equation. All results were representative of at least three independent experiments.
(§3) Figure 2 Suppression of AMPA receptor currents by α-LA compounds. Graphs (a,c,e,g) present AMPA receptor currents (pA) before and after the administration of α-LA derivatives on GluA1, GluA1/2, GluA2, and GluA2/3 subunits. While (b,d,f,h) present the ratio A/AI, where A represents the current caused by 10 mM glutamate alone and AI represents the current induced by glutamate + α-LA (12 µM). The whole-cell current was measured at −60 mV, pH 7.4, and 22 °C. A one way analysis of variance (ANOVA) was performed for comparison: *** p < 0.001; ns, not significant. Ten cells were investigated for each LA compound. All values are shown as mean SEM.
(§4) Figure 3 The potency of LA compounds against AMPA receptor subunits. […]

[2] = biological target: T2, GluA1/2 AMPA receptor subunits (flip isoform) (Homo sapiens, UniProt P42261+P42262); assay: Whole-cell patch-clamp electrophysiology, heteromeric GluA1/2 expressed in HEK293 cells; settings: for Amplitude (glutamate + compound): 10 mM glutamate + 12 µM compound, −60 mV, pH 7.4, 22 °C, mean ± SEM; for Amplitude (glutamate + compound) / A/AI (current with glutamate alone / current with glutamate + compound): n = 10; for A/AI (current with glutamate alone / current with glutamate + compound): 10 mM glutamate, 12 µM compound; for IC50 / pIC50: Hill fit; for IC50: read-out: Log IC50 (converted); for t deact (weighted deactivation time constant) / t des (weighted desensitization time constant): glutamate + 12 µM compound; for t deact (weighted deactivation time constant): glutamate alone 2.5±0.3 ms; for t des (weighted desensitization time constant): glutamate alone 5.3±0.4 ms; for pIC50: whole-cell normalized peak amplitude, unit printed in the text, not in Table S6, read-out: IC50
T2 construct: expressed in transfected cells; host or cells: HEK293
T2 sequence (P42261 19-906 isoform P42261-2 limits assumed): as above
T2 sequence (P42262 25-883 isoform P42262-2 limits assumed): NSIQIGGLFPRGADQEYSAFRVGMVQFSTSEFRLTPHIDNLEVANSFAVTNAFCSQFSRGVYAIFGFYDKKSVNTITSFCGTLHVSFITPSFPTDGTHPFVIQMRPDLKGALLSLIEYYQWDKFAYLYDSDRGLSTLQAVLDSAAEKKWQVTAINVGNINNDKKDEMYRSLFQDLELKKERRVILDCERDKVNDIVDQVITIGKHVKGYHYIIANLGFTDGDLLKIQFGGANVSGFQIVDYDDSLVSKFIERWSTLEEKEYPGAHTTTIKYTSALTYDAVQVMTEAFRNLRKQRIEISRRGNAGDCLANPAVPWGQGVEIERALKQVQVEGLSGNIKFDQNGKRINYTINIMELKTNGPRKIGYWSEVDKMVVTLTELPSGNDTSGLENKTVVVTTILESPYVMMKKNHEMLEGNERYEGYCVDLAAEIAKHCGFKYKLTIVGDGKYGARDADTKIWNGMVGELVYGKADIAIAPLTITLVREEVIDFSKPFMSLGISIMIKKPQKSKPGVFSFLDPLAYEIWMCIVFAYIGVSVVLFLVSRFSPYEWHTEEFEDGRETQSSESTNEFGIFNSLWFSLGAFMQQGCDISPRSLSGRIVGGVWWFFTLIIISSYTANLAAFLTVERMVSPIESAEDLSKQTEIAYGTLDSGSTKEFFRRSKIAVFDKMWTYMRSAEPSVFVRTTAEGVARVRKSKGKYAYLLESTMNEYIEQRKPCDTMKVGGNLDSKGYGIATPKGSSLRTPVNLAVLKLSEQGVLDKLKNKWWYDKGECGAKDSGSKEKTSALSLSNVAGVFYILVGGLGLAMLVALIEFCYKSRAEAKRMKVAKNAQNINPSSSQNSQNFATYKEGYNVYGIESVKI
Description: as §1, §2, §3, §4

[3] = biological target: T3, GluA2 AMPA receptor subunit (flip isoform) (Homo sapiens, UniProt P42262); assay: Whole-cell patch-clamp electrophysiology, homomeric GluA2 expressed in HEK293 cells; settings: for Amplitude (glutamate + compound): 10 mM glutamate + 12 µM compound, −60 mV, pH 7.4, 22 °C, mean ± SEM; for Amplitude (glutamate + compound) / A/AI (current with glutamate alone / current with glutamate + compound): n = 10; for A/AI (current with glutamate alone / current with glutamate + compound): 10 mM glutamate, 12 µM compound; for IC50 / pIC50: Hill fit; for IC50: read-out: Log IC50 (converted); for t deact (weighted deactivation time constant) / t des (weighted desensitization time constant): glutamate + 12 µM compound; for t deact (weighted deactivation time constant): glutamate alone 2.4±0.1 ms; for t des (weighted desensitization time constant): glutamate alone 2.6±0.1 ms; for pIC50: whole-cell normalized peak amplitude, unit printed in the text, not in Table S6, read-out: IC50
T3 construct: expressed in transfected cells; host or cells: HEK293
T3 sequence (P42262 25-883 isoform P42262-2 limits assumed): as above
Description: as §1, §2, §3, §4

[4] = biological target: T4, GluA2/3 AMPA receptor subunits (flip isoform) (Homo sapiens, UniProt P42262+P42263); assay: Whole-cell patch-clamp electrophysiology, heteromeric GluA2/3 expressed in HEK293 cells; settings: for Amplitude (glutamate + compound): 10 mM glutamate + 12 µM compound, −60 mV, pH 7.4, 22 °C, mean ± SEM; for Amplitude (glutamate + compound) / A/AI (current with glutamate alone / current with glutamate + compound): n = 10; for A/AI (current with glutamate alone / current with glutamate + compound): 10 mM glutamate, 12 µM compound; for IC50 / pIC50: Hill fit; for IC50: read-out: Log IC50 (converted); for t deact (weighted deactivation time constant) / t des (weighted desensitization time constant): glutamate + 12 µM compound; for t deact (weighted deactivation time constant): glutamate alone 2.4±0.3 ms; for t des (weighted desensitization time constant): glutamate alone 2.7±0.3 ms; for pIC50: whole-cell normalized peak amplitude, unit printed in the text, not in Table S6, read-out: IC50
T4 construct: expressed in transfected cells; host or cells: HEK293
T4 sequence (P42262 25-883 isoform P42262-2 limits assumed): as above
T4 sequence (P42263 29-894 isoform P42263-2 limits assumed): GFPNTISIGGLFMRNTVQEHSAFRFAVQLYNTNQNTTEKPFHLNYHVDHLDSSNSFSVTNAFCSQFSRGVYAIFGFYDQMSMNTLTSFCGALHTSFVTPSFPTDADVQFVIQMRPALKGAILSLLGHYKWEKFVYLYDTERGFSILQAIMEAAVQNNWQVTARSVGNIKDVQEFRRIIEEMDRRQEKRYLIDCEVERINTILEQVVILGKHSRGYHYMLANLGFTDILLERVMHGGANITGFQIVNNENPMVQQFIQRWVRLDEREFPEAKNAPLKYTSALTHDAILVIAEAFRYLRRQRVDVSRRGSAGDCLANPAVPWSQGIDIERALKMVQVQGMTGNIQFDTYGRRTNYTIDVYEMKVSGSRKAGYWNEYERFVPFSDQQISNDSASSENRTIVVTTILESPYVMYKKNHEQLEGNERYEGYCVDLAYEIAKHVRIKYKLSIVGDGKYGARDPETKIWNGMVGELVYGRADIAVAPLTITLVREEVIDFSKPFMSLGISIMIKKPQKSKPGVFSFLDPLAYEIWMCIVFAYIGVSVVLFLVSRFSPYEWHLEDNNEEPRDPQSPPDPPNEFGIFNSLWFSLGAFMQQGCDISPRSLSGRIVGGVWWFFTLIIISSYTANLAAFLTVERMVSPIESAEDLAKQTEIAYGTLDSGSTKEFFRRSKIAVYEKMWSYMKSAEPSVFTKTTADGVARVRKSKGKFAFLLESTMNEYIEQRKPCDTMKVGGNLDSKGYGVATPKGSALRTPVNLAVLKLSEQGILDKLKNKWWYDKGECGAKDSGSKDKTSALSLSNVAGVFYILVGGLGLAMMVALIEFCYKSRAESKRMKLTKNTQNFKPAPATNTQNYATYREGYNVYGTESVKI
Description: as §1, §2, §3, §4

[5] = test system: AMPA receptor subunits (GluA1, GluA2, GluA1/2, GluA2/3); assay: Whole-cell patch-clamp electrophysiology, summary over the AMPA receptor subunits in HEK293 cells; settings: for decrease in the peak current of the AMPARs / increase of the rate of AMPA receptor deactivation (τw deact) / reduction in the rate of desensitization (τw des): all AMPA receptor subunits, 12 µM compound; for pIC50: over GluA1, GluA1/2, GluA2, GluA2/3, read-out: approximate IC50 against AMPA receptor subunits
Description: as §1, §2
The levels of inhibition of α-LA and its derivatives attracted our attention to assessing the potency of the compounds in a concentration-dependent manner. […] The concentration−inhibition curves were produced by administering glutamate alone at a concentration of 10 mM, followed by glutamate + α-LA derivatives at varying concentrations (in μM) for every recording point. Afterward, the cells were normalized back by administering glutamate alone. Since the glutamate concentration in the synaptic cleft constantly saturates the receptors, driving the response to a near maximum level, variability occurs because the maximum level changes. […]

| Structure (SMILES) | Amplitude (glutamate + compound) [1] [pA] | A/AI (current with glutamate alone / current with glutamate + compound) [1] | IC50 [1] [µM] | t deact (weighted deactivation time constant) [1] [ms] | t des (weighted desensitization time constant) [1] [ms] | pIC50 [1] | Amplitude (glutamate + compound) [2] [pA] | A/AI (current with glutamate alone / current with glutamate + compound) [2] | IC50 [2] [µM] | t deact (weighted deactivation time constant) [2] [ms] | t des (weighted desensitization time constant) [2] [ms] | pIC50 [2] | Amplitude (glutamate + compound) [3] [pA] | A/AI (current with glutamate alone / current with glutamate + compound) [3] | IC50 [3] [µM] | t deact (weighted deactivation time constant) [3] [ms] | t des (weighted desensitization time constant) [3] [ms] | pIC50 [3] | Amplitude (glutamate + compound) [4] [pA] | A/AI (current with glutamate alone / current with glutamate + compound) [4] | further results |
| --- | --- | --- | --- | --- | --- | --- | --- | --- | --- | --- | --- | --- | --- | --- | --- | --- | --- | --- | --- | --- | --- |
| O=C(CCCCC1CCSS1)OCCCO (centres unmarked) [LA1, 1-Hydroxy-3-Lipo Ester] | 89±12.0 | 10.43±0.7 | 3.47 | 9.5 ± 0.5 | 0.8 ± 0.1 | 5.46 | 60±9.0 | 10.32±1.0 | 3.55 | 10.1 ± 0.7 | 2.8 ± 0.3 | 5.45 | 124±19.0 | 10.22±0.8 | 3.63 | 10.4 ± 0.9 | 1.0 ± 0.06 | 5.44 | 52±8.0 | 10.14±1.0 | IC50 [4]: 3.8 µM; t deact (weighted deactivation time constant) [4]: 10.1 ± 0.6 ms; t des (weighted desensitization time constant) [4]: 1.2 ± 0.09 ms; pIC50 [4]: 5.42; decrease in the peak current of the AMPARs [5]: about 10 fold; increase of the rate of AMPA receptor deactivation (τw deact) [5]: about 4 fold; reduction in the rate of desensitization (τw des) [5]: 3–4 fold; pIC50 [5]: 5.42 to 5.46 |
| O=C(CCCCC1CCSS1)OCCCO[N+](=O)[O-] (centres unmarked) [LA2, 1-Nitrooxy–propane-3-lipoyl ester] | 79±11.0 | 11.53±0.8 | 3.39 | 11.6 ± 0.7 | 0.6 ± 0.1 | 5.47 | 57±8.0 | 11.34±0.9 | 3.39 | 11.1 ± 0.9 | 2.7 ± 0.2 | 5.47 | 112±17.0 | 11.16±0.7 | 3.55 | 10.9 ± 0.7 | 0.8 ± 0.08 | 5.45 | 46±7.0 | 11.03±1.0 | IC50 [4]: 3.63 µM; t deact (weighted deactivation time constant) [4]: 10.8 ± 0.9 ms; t des (weighted desensitization time constant) [4]: 0.9 ± 0.09 ms; pIC50 [4]: 5.44; decrease in the peak current of the AMPARs [5]: ~11 fold; increase of the rate of AMPA receptor deactivation (τw deact) [5]: approximately 5 fold; reduction in the rate of desensitization (τw des) [5]: 3–4 fold; pIC50 [5]: ~5.46 |
